# US20160129089A1, “COMBINATION THERAPY” (ANTISENSE THERAPEUTICS LTD, priority 2013, published 2016)
# e = 2'-O-(2-methoxyethyl) (MOE); d = 2'-deoxy (DNA)
# Tested on: human growth hormone receptor mRNA
# Test: Inhibition of human growth hormone receptor mRNA levels by antisense oligonucleotides, quantitative real-time PCR, MCF7 cells
# Format: cell-based
# Parameters: concentration or dose not given beside the values
# Conditions: averages from three experiments
# Method: “Target site” indicates the first (5′-most) nucleotide number on the particular target sequence to which the oligonucleotide binds. “% Inhib” indicates the inhibitory effect on hGHR mRNA levels by quantitative real-time PCR. Data are averages from three experiments in which MCF7 cells were treated with the antisense oligonucleotides.
# All oligonucelotides in Table 1 are chimeric oligonucleotides (“gapmers”), 20 nucleotides in length, composed of a central “gap” region consisting of ten 2′-deoxynucleotides, which is flanked on both sides (5′ and 3′ directions) by five-nucleotide “wings”. The wings are composed of 2′-methoxyethyl (2′-MOE) nucleotides. The internucleoside (backbone) linkages are phosphorothioate (P═S) throughout the oligonucleotide. All uracils are 5-methyluracils (^MeU). Typically, the oligonucleotide is synthesized using 2-methoxyethyl modified thymidines not 5-methyluracils. All pyrimidines are C5 methylated (i.e., U, T, C are C5 methylated).
row,Substance,% INHIB (inhibitory effect on hGHR mRNA levels) [%]
1,"227453 (antisense CATAATCAGGGCATTCTTTC; sugars from the 5' end e5 d10 e5, all phosphorothioate, methylation of C not given here) [compound 227453]",52
2,"227464 (antisense CCTTTAATCTTTGGAACTGG; sugars from the 5' end e5 d10 e5, all phosphorothioate, methylation of C not given here) [compound 227464]",58
3,"227468 (antisense TCATCAATATCTAGCTCAAT; sugars from the 5' end e5 d10 e5, all phosphorothioate, methylation of C not given here) [compound 227468]",62
4,"227469 (antisense CTTAGAAGTCTGTCTGTGTC; sugars from the 5' end e5 d10 e5, all phosphorothioate, methylation of C not given here) [compound 227469]",63
5,"227475 (antisense CCTGCTGGTGTAATGTCGCT; sugars from the 5' end e5 d10 e5, all phosphorothioate, methylation of C not given here) [compound 227475]",68
6,"227480 (antisense ATGTAAATGTCCTCTTGGTT; sugars from the 5' end e5 d10 e5, all phosphorothioate, methylation of C not given here) [compound 227480]",66
7,"227481 (antisense TGGTGATGTAAATGTCCTCT; sugars from the 5' end e5 d10 e5, all phosphorothioate, methylation of C not given here) [compound 227481]",45
8,"227482 (antisense TTCTGTGGTGATGTAAATGT; sugars from the 5' end e5 d10 e5, all phosphorothioate, methylation of C not given here) [compound 227482]",53
9,"227483 (antisense AGGCTTTCTGTGGTGATGTA; sugars from the 5' end e5 d10 e5, all phosphorothioate, methylation of C not given here) [compound 227483]",75
10,"227484 (antisense TGGTAAGGCTTTCTGTGGTG; sugars from the 5' end e5 d10 e5, all phosphorothioate, methylation of C not given here) [compound 227484]",63
11,"227488 (antisense AGTTGGTCTGTGCTCACATA; sugars from the 5' end e5 d10 e5, all phosphorothioate, methylation of C not given here) [compound 227488]",86
12,"227489 (antisense TGTTCAGTTGGTCTGTGCTC; sugars from the 5' end e5 d10 e5, all phosphorothioate, methylation of C not given here) [compound 227489]",75
13,"227490 (antisense GCATGATTTTGTTCAGTTGG; sugars from the 5' end e5 d10 e5, all phosphorothioate, methylation of C not given here) [compound 227490]",67
14,"227499 (antisense TATAAAAGGGCTTTGTAAAA; sugars from the 5' end e5 d10 e5, all phosphorothioate, methylation of C not given here) [compound 227499]",14
15,"227500 (antisense CATAGCAGCAAAGTAGCAGA; sugars from the 5' end e5 d10 e5, all phosphorothioate, methylation of C not given here) [compound 227500]",69
16,"227501 (antisense GCTATTTTTGGCTATAGAAA; sugars from the 5' end e5 d10 e5, all phosphorothioate, methylation of C not given here) [compound 227501]",64
17,"227502 (antisense GATTGAGGTATTTAGCTATT; sugars from the 5' end e5 d10 e5, all phosphorothioate, methylation of C not given here) [compound 227502]",56
18,"272302 (antisense GATCCATACCTGTAGGACCT; sugars from the 5' end e5 d10 e5, all phosphorothioate, methylation of C not given here) [compound 272302]",60

row,Substance,% INHIB (inhibitory effect on hGHR mRNA levels) [%]
1,"272303 (antisense CCAGAGATCCATACCTGTAG; sugars from the 5' end e5 d10 e5, all phosphorothioate, methylation of C not given here) [compound 272303]",55
2,"272304 (antisense TGCTAAGGATAGCTGCTGTG; sugars from the 5' end e5 d10 e5, all phosphorothioate, methylation of C not given here) [compound 272304]",48
3,"272305 (antisense TTGTCTTTAGGCCTGGATTA; sugars from the 5' end e5 d10 e5, all phosphorothioate, methylation of C not given here) [compound 272305]",68
4,"272306 (antisense TTAGAAGAATTTGTCTTTAG; sugars from the 5' end e5 d10 e5, all phosphorothioate, methylation of C not given here) [compound 272306]",13
5,"272307 (antisense GTGAATTTAGGCTCCTTAGA; sugars from the 5' end e5 d10 e5, all phosphorothioate, methylation of C not given here) [compound 272307]",55
6,"272308 (antisense GCTGTATGGGTCCTAGGTTC; sugars from the 5' end e5 d10 e5, all phosphorothioate, methylation of C not given here) [compound 272308]",57
7,"272309 (antisense TAACAGCTGTTTTCCCCAGC; sugars from the 5' end e5 d10 e5, all phosphorothioate, methylation of C not given here) [compound 272309]",85
8,"272310 (antisense TTTCATCCACTGTACCACCA; sugars from the 5' end e5 d10 e5, all phosphorothioate, methylation of C not given here) [compound 272310]",76
9,"272311 (antisense TTGCACTATTTCATCAACAG; sugars from the 5' end e5 d10 e5, all phosphorothioate, methylation of C not given here) [compound 272311]",47
10,"272312 (antisense GGGTGGATCTGGTTGCACTA; sugars from the 5' end e5 d10 e5, all phosphorothioate, methylation of C not given here) [compound 272312]",57
11,"272313 (antisense ATTGCGTGGTGCTTCCCATC; sugars from the 5' end e5 d10 e5, all phosphorothioate, methylation of C not given here) [compound 272313]",77
12,"272314 (antisense TAGGGTCCATCATTTTCCAT; sugars from the 5' end e5 d10 e5, all phosphorothioate, methylation of C not given here) [compound 272314]",56
13,"272315 (antisense CAATGAGTACACTGGAACTG; sugars from the 5' end e5 d10 e5, all phosphorothioate, methylation of C not given here) [compound 272315]",53
14,"272316 (antisense AACTCGCCATAATTTCCAGA; sugars from the 5' end e5 d10 e5, all phosphorothioate, methylation of C not given here) [compound 272316]",64
15,"272317 (antisense AGCCCAAATATTCCAAAGAT; sugars from the 5' end e5 d10 e5, all phosphorothioate, methylation of C not given here) [compound 272317]",65
16,"272318 (antisense TCAGCATTTTAATCCTTTGC; sugars from the 5' end e5 d10 e5, all phosphorothioate, methylation of C not given here) [compound 272318]",55
17,"272319 (antisense ATTTTCCTTCCTTGAGGAGA; sugars from the 5' end e5 d10 e5, all phosphorothioate, methylation of C not given here) [compound 272319]",67
18,"272320 (antisense AGATTGTGTTCACCTCCTCT; sugars from the 5' end e5 d10 e5, all phosphorothioate, methylation of C not given here) [compound 272320]",70
